From patent US10238688B2, “Combination therapies for bladder cancer” (GENEDIA BIOTECH CO. LTD., priority 2015, dated 2019)

Tests used:
T24 = experiment: MTT cell survival / IC50, T24 cells; type: cell-based, human
Biu87 = experiment: MTT cell survival / IC50, Biu87 cells; type: cell-based, human
SCaBER = experiment: MTT cell survival / IC50, SCaBER squamous carcinoma cells; type: cell-based, human
SV-HUC-1 = type: cell-based
Hypoxia pathway = experiment: Cignal Finder dual-luciferase pathway reporter, Hypoxia; type: cell-based, human; parameters: key to Relative activity, Hypoxia reporter: firefly/renilla ratio, background (negative control) subtracted; details: for Relative activity, Hypoxia reporter: luc/Renluc relative to negative control reporter, single drug at 4 folds vs EH/Ci/Mi combination
Method: (§1) The pathway analysis was performed with Qiagen's Cignal Finder Pathway Reporter Array systems according to the manufacturer's instructions. The pathway-focused dual-luciferase reporter construct was a mixture of an inducible transcription factor responsive firefly luciferase reporter and constitutively expressing renilla construct. Transcriptional response element (TRE) sequence response elements to each specific transcriptional factor triggered by the different signaling pathways are positioned before the TATA box of firefly luciferase reporter gene. The extent of activity of the reporter reflects the level of activity of the particular signaling pathway. CMV controlled renilla expression vector is co-transfected into the cell as an internal control. Non-inducible reporter construct that lacks the transcriptional factor binding sequence and could not be induced by any transcription factors is used as a negative control. Cells transfected with CMV directed firefly luciferase reporter gene serve as a positive control. Briefly, cells seeded in 6-well plates were transfected with Cignal finder pathway arrays according to the manufacturer's instructions (Qiagen). Then cells were seeded onto 96-well plates. Ci (6000 ng/mL), Mi (800 ng/mL), or EH (1000 ng/mL) and Ci/Mi/EH combination (Ci, 1500 ng/mL, Mi, 800 ng/mL and EH, 1000 ng/m L) were then added to the cells 24 h post-transfection. After 6 h of incubation with the different drugs at 37° C., cells were lysed and a dual luciferase assay (for firefly and renilla luciferase) was performed using a PromegaGloMax 20/20 illuminometer. The firefly luciferase activities were normalized over the renilla luciferase activities after background activity determined by luciferase activities of negative controls was subtracted. A triple test of cell survival under these drug doses was also performed by MTT assay following 18 h incubation at 37° C. […]

ER Stress pathway = experiment: Cignal Finder dual-luciferase pathway reporter, ER Stress; type: cell-based, human; details: for Relative activity, ER Stress reporter: luc/Renluc relative to negative control reporter, single drug at 4 folds vs EH/Ci/Mi combination
Method: as §1

Notch pathway = experiment: Cignal Finder dual-luciferase pathway reporter, Notch; type: cell-based, human; parameters: key to Relative activity, Notch reporter: firefly/renilla ratio, background (negative control) subtracted; details: for Relative activity, Notch reporter: luc/Renluc relative to negative control reporter, single drug at 4 folds vs EH/Ci/Mi combination;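 for digitalized pathway activity, Notch: code −1 means repressed below 0.5-fold of 5637 cells or no-drug control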
Method: as §1

MAPK/ERK pathway = experiment: Cignal Finder dual-luciferase pathway reporter, MAPK/ERK; type: cell-based, human; details: for Relative activity, MAPK/ERK reporter: luc/Renluc relative to negative control reporter, single drug at 4 folds vs EH/Ci/Mi combination
Method: as §1

[1] = Table S3, ng/ml: Pi 40, Pa 160, EH 250, Ci 1500, Mi 200, 1=Ci/Mi, 2=EH/Ci/Mi, 3=Pa/Ci/Mi, 4=Pi/Ci/Mi
[2] = ng/ml: EH 1000, Ci 6000, Mi 800, Pi 160, Pa 640, Ge 20, EH/Ci/Mi regimen

SMILES: COC12C(COC(N)=O)C3=C(C(=O)C(C)=C(N)C3=O)N1CC1NC12 (stereo not drawn) [Mi, [6-Amino-8a-methoxy-5-methyl-4,7-dioxo-1,1a,2,4,7,8,8a,8b-octahydroazireno [2′,3′:3,4]pyrrolo[1,2-a]indol-8-yl]methyl carbamate]
- Cell survival (%) (T24; [1]): 51.34%
- Single drug 4X Cell Survival (%) (T24; [2]): 19.72%
- Cell survival (%) (Biu87; Biu87, Table S3, ng/ml: Pi 40, Pa 160, EH 250, Ci 1500, Mi 200, 1=Ci/Mi, 2=EH/Ci/Mi, 3=Pa/Ci/Mi, 4=Pi/Ci/Mi): 42.05%
- Single drug 4X Cell Survival (%) (Biu87; Biu87, ng/ml: EH 1000, Ci 6000, Mi 800, Pi 160, Pa 640, Ge 20, EH/Ci/Mi regimen): 21.74%
- Cell survival 72 hours (Biu87; Biu87 cells, Table 4 (A)): 21.74%
- ACS (%) (Biu87; Biu87 cells, Table 4 (B)): 21.74%
- Cell survival (%) (SCaBER; [1]): 56.83%
- Single drug 4X Cell Survival (%) (SCaBER; [2]): 41.97%
- Single drug 4X Cell Survival (%) (SV-HUC-1; SV-HUC-1, ng/ml: EH 1000, Ci 6000, Mi 800, Pi 160, Pa 640, Ge 20, EH/Ci/Mi regimen): 91.17%
- Cell survival 72 hours (SV-HUC-1; SV-HUC-1 cells, Table 4 (A)): 91.17%
- ACS (%) (SV-HUC-1; SV-HUC-1 cells, Table 4 (B)): 91.17%
- relative drug trigged pathway activity over the no-drug level, Hypoxia (Hypoxia pathway; 5637 cells): 3.31 fold
- Relative activity, Hypoxia reporter (Hypoxia pathway; 5637 cells): 75.18
- relative drug trigged pathway activity over the no-drug level, Hypoxia (Hypoxia pathway; Biu87 cells): 3.56 fold
- Relative activity, Hypoxia reporter (Hypoxia pathway; Biu87 cells): 26.99
- digitalized pathway activity, Hypoxia (Hypoxia pathway; H-bc cells): 0 (null (0) if neither of the above holds)
- relative drug trigged pathway activity over the no-drug level, Hypoxia (Hypoxia pathway; H-bc cells): 0.58 fold
- Relative activity, Hypoxia reporter (Hypoxia pathway; H-bc cells): 20.08
- relative drug trigged pathway activity over the no-drug level, Hypoxia (Hypoxia pathway; SV-HUC-1 cells): 2.08 fold
- Relative activity, Hypoxia reporter (Hypoxia pathway; SV-HUC-1 cells): 52.50
- digitalized pathway activity, Hypoxia (Hypoxia pathway; UM-UC-3 cells): 0 (null (0) if neither of the above holds)
- Relative activity, Hypoxia reporter (Hypoxia pathway; UM-UC-3 cells): 45.95
- relative drug trigged pathway activity over the no-drug level, Hypoxia (Hypoxia pathway; Um-Uc-3 cells): 0.73 fold
- relative drug trigged pathway activity over the no-drug level, ER Stress (ER Stress pathway; 5637 cells): 3.2 fold
- Relative activity, ER Stress reporter (ER Stress pathway; 5637 cells): 83.09
- relative drug trigged pathway activity over the no-drug level, ER Stress (ER Stress pathway; Biu87 cells): 1.65 fold
- Relative activity, ER Stress reporter (ER Stress pathway; Biu87 cells): 36.14
- relative drug trigged pathway activity over the no-drug level, ER Stress (ER Stress pathway; H-bc cells): 1.97 fold
- Relative activity, ER Stress reporter (ER Stress pathway; H-bc cells): 44.48
- relative drug trigged pathway activity over the no-drug level, ER Stress (ER Stress pathway; SV-HUC-1 cells): 1.51 fold
- Relative activity, ER Stress reporter (ER Stress pathway; SV-HUC-1 cells): 155.20
- Relative activity, ER Stress reporter (ER Stress pathway; UM-UC-3 cells): 109.59
- relative drug trigged pathway activity over the no-drug level, ER Stress (ER Stress pathway; Um-Uc-3 cells): 1.34 fold
- relative drug trigged pathway activity over the no-drug level, Notch (Notch pathway; 5637 cells): 2.2 fold
- Relative activity, Notch reporter (Notch pathway; 5637 cells): 2.23
- digitalized pathway activity, Notch (Notch pathway; Biu87 cells): 0 (null (0) if neither of the above holds)
- relative drug trigged pathway activity over the no-drug level, Notch (Notch pathway; Biu87 cells): 1.45 fold
- Relative activity, Notch reporter (Notch pathway; Biu87 cells): 6.42
- relative drug trigged pathway activity over the no-drug level, Notch (Notch pathway; H-bc cells): 0.42 fold
- Relative activity, Notch reporter (Notch pathway; H-bc cells): 0.59
- digitalized pathway activity, Notch (Notch pathway; SV-HUC-1 cells): 0 (null (0) if neither of the above holds)
- relative drug trigged pathway activity over the no-drug level, Notch (Notch pathway; SV-HUC-1 cells): 0.95 fold
- Relative activity, Notch reporter (Notch pathway; SV-HUC-1 cells): 4.10
- Relative activity, Notch reporter (Notch pathway; UM-UC-3 cells): 7.40
- relative drug trigged pathway activity over the no-drug level, Notch (Notch pathway; Um-Uc-3 cells): 1.5 fold
- relative drug trigged pathway activity over the no-drug level, MAPK/ERK (MAPK/ERK pathway; 5637 cells): 3.73 fold
- Relative activity, MAPK/ERK reporter (MAPK/ERK pathway; 5637 cells): 194.59
- relative drug trigged pathway activity over the no-drug level, MAPK/ERK (MAPK/ERK pathway; Biu87 cells): 2.04 fold
- Relative activity, MAPK/ERK reporter (MAPK/ERK pathway; Biu87 cells): 1001.57
- relative drug trigged pathway activity over the no-drug level, MAPK/ERK (MAPK/ERK pathway; H-bc cells): 0.45 fold
- Relative activity, MAPK/ERK reporter (MAPK/ERK pathway; H-bc cells): 59.07
- digitalized pathway activity, MAPK/ERK (MAPK/ERK pathway; SV-HUC-1 cells): 0 (null (0) if neither of the above holds)
- relative drug trigged pathway activity over the no-drug level, MAPK/ERK (MAPK/ERK pathway; SV-HUC-1 cells): 1.42 fold
- Relative activity, MAPK/ERK reporter (MAPK/ERK pathway; SV-HUC-1 cells): 335.00
- digitalized pathway activity, MAPK/ERK (MAPK/ERK pathway; UM-UC-3 cells): 0 (null (0) if neither of the above holds)
- Relative activity, MAPK/ERK reporter (MAPK/ERK pathway; UM-UC-3 cells): 151.35
- relative drug trigged pathway activity over the no-drug level, MAPK/ERK (MAPK/ERK pathway; Um-Uc-3 cells): 1.06 fold
